The values below come from publication PMC10385664, “Projection of Target Drug Particle Size in Oral Formulations Using the Refined Developability Classification System (rDCS)” (Pharmaceutics, 2023).

As a reminder, the Papp is the rate of passage across a membrane or cell layer, normalised by area and donor concentration.

The nature of data set [1]: Theoretical IDR from the Levich equation with solubility as input. The following applies: FaSSIF V1.
Description: Dissolution/Transit Balance: Derivation of kdiss based on Intrinsic Dissolution Rate In addition to Equation (S1) (utilizing hdisk and Adisk ra ther than hparticle and Apowder), the Levich equation (Equation (S12)) [11] applies for the dissolution from a rotating disk with a constant surface area under sink conditions and the assumption of convective diffusion without reaction as dissolution mechanism:
where IDR is the intrinsic dissolution rate, D is the diffusion coefficient, ν is the kinematic viscosit y, ω is the rotational velocity and CS is the thermodynamic solubility. The equation can be rewritten to estimate the IDR using the rotational speed of the compressed disk in revolutions per minut e (Equation (S13Error!
For this, a unit conversion factor of 30/π must be applied for the conversion of ω in rad∙s–1 to revolutions per minut e (RPM) in min‐1.
The dissolution rate from the disk surface can be calculated via multiplication of the IDR by the disk surface area Adisk (Equation (S14)):
Equation (S1) (adjusted to the dissolution from a disk surface) and Equation (S14) (Levich equation) were equated to obtain Equation (S15).
Rearrangement of Equation (S15) for hdisk results in an equation for the thickness of the aqueous boundary layer (ABL) of the rotating disk (hdisk) under sink conditions (Equation (S16)): […]
Data set [2] is described as follows: Caco-2 permeability assay (pH 6.5/7.4 gradient, ± elacridar). The following applies: human; for recovery at 120 min, 10 µM: Caco-2. The procedure:
(§1) In vitro permeability studies were performed at Cyprotex Discovery Ltd. (Macclesfield, UK) using a high-throughput Caco-2 permeability assay. Permeability at 37 °C was assessed from the apical to basolateral side (A⟹B) and in opposite direction (B⟹A) applying a pH gradient with pH 6.5 in the apical and pH 7.4 in the basolateral compartment (Hanks Balanced Salt Solution, HBSS). After an incubation of 120 min, samples were diluted for analysis via liquid chromatography coupled with tandem mass spectrometry (LC-MS/MS). […] Experiments were performed in absence and presence of the P-glycoprotein (P-gp) inhibitor elacridar (10 µM) to study transporter-mediated efflux effects. The dosing solutions contained the API (10 µM) in HBSS, and DMSO in a concentration of ≤1% v/v. Lucifer yellow (100 µM) was included as fluorescent integrity marker. Further experimental details are provided in Supplementary Materials.
(§2) The apparent permeability coefficients (Papp) were calculated according to Equation (27):(27) Papp=dQ/dt/C0·A where dQ/dt is the permeation rate of the API across the cell monolayer, C0 is the starting concentration of the API in the dosing solution and A is the surface area of the cell monolayer. The efflux ratios (ERs) were calculated from the B⟹A and A⟹B Papp values to estimate whether P-gp mediated efflux was involved in the transport of the APIs. The mass balance (% recovery) was calculated from the sum of the API recovered from the acceptor and donor compartments at the end of the experiment, divided by the initial donor amount.
(§3) Table S6. Gradient of the UPLC method for analysis of lemborexant.
(§4) Table S7. Gradient of the UPLC method for analysis of istradefylline.
(§5) S.2.5. rDCS Standard Investigations: Caco‐2 permeability studies
(§6) Caco‐2 cells were obtained from the American Type Culture Collection (ATCC, Manassas, VA, USA) and used between passage numbers 40 to 60. The cells were seeded onto Millipore Multiscreen Transwell plates at a density of 1 x 10^5 cells/cm2 and cultured in Dulbeccoʹs Modified Eagleʹs Medium (DMEM). The medium was changed every two or three days. Ce l l culture was carried out at 37 °C in an atmosphere of 5 % CO2 with a relative humidity of 95 %. The permeability assay was performed on day 20.
(§7) In vitro permeability was assessed wit h a high‐throughput Caco‐2 permeability assay. The assay was prepared by rinsing apical and basolateral monolayer surfaces twice with Hanks Balanced Salt Solution (HBSS) at the desired pH and 37 °C. Subsequently, cells in the apical and basolateral compartments were incubated with HBSS at the desired pH for 40 min. A pH gradient with pH 6.5 in the apical compartment and pH 7.4 in the basolateral compartment was applied. Dosing solutions containing the API (10 μ M) were prepared by diluting a concentrated API solution in DMS O with HBSS. The final DMSO concentration was ≤ 1% v/v. Lucifer yellow (100 μM) was included in the dosing solution as fluorescent integrity marker. For the assessment of the permeability from the apical to basolateral side (A⟹B), HBSS in the apical compartment was replaced with the dosing solution. The apical inserts were placed into a companion plat e containing fresh buffer with 1% v/ v DMSO. For the assessment of the permeability from the basolateral to […]
(§8) apical side (B⟹A), HBSS was removed from the companion plate and replaced with the solution of drug in HBSS. Fresh HBSS was added to the apical insert, which was then placed into the companion plate.
(§9) Experiments were performed in absence and presence of the P‐glycoprotein (P‐gp) inhibitor elacridar (10 μM) to study transporter‐mediated efflux effects. In those experiments, elacridar was included in both compartments during the equilibration time and assay. The starting concentration (C0) was confirmed by sampling from the dosing solution immediately before dosing into the cell pl ates. After incubation of 120 minutes, the apical inserts and companion plates were separated for sampling from both compartments.
On the technique in general: Caco-2 monolayers are a common model of the intestinal barrier.

The subject of another data set is P-gp. The data set is described as above. Conditions: human, Caco-2, with P-gp inhibitor elacridar 10 µM. The procedure:
as §1, §2, §3, §4, §5, §6, §7, §8, §9

Data set [3] can be described thus: rDCS standard investigations: D/S ratio, SLAD and rDCS classification. Here is the method:
rDCS analysis was performed as described by Rosenberger et al.. […] The An can be calculated according to Equation (30):(30) An=DF·Peff/Rsi·Tsi
The rDCS classification according to the standard investigations was based on the D/S ratios, Peff and SLAD.

Data set [4] can be described thus: rDCS dissolution rate analysis (kdiss vs kperm) by Rosenberger et al. Conditions: for kdiss: based on IDR, standard particle size 100 µm. From the text: Rosenberger et al. published an equation for kdiss based on the intrinsic dissolution rate (IDR) rather than CS (Equation (9)). Applying the hparticle assumption for larger particles with r0 ≥ 30 µm (hparticle = 30 µm) results in Equation (10). (9) kdiss=kIDR·IDR=3·hdisk/r0^2·ρ·IDR(r0<30 µm, hparticle=r0) (10) kdiss=kIDR·IDR=3·hdisk/r0·hparticle·ρ·IDR(r0≥30 µm, hparticle=30 µm)
In these equations kIDR is the IDR rate constant, which accounts for the solvent kinematic viscosity, rotational speed of the compressed disk, diffusion coefficient, particle size and API density. Therefore, kIDR corrects for differences in experimental conditions that influence the measured IDR value. The ABL thickness of the rotating disk (hdisk) can be estimated according to Equation (11):(11) hdisk=4.98·ν^1/6·D^1/3·RPM^−1/2 where ν is the solvent kinematic viscosity and the stirring rate is expressed as revolutions per minute (RPM). When kdiss is based on the IDR, two modified Dn equations result (Equations (12) and (13)):(12) Dn=3·hdisk/r0^2·ρ·IDR·Tsi(r0<30 µm, hparticle=r0) (13) Dn=3·hdisk/r0·hparticle·ρ·IDR·Tsi(r0≥30 µm, hparticle=30 µm)
The rDCS dissolution rate analysis was conducted according to Rosenberger et al.. For this, kdiss based on the IDR for a standard particle size of 100 µm was calculated (Equation (15)) and compared to kperm (Equation (10)). The kinematic viscosity of the medium (0.00696 cm^2/s), aqueous diffusion coefficient (predicted with ADMET Predictor version 9), stirring rate (100 rpm), initial particle size (100 µm), API density (predicted with ACD/Labs Release 2021.1.2), and measured IDR were used to calculate kdiss. Predicted diffusion coefficients and API densities can be found in Supplementary Materials. The estimated Peff, degree of flatness (1.7) and small intestinal radius (2 cm) were used for the calculation of kperm.

For data set [5] the following is noted: cited from earlier work.
In a further data set the test system is Caco-2 cells. As to the kind of experiment: Caco-2 permeability assay (pH 6.5/7.4 gradient, ± elacridar). Here is the method:
as §1, §2, §3, §4, §5, §6, §7, §8, §9

The conditions of data set [6]: method not disclosed; cited from earlier work.
The mark [7] stands for this setting: Caco-2, Papp(A⟹B), Caco-2, 10 µM, apical pH 6.5 / basolateral pH 7.4, 120 min, without inhibitor.
The mark [8] stands for this setting: Caco-2, Papp(B⟹A), Caco-2, without inhibitor.
[9] abbreviates: Caco-2, with elacridar 10 µM, Papp(A⟹B) + inhibitor.
Where [10] appears, read: Caco-2, with elacridar 10 µM, Papp(B⟹A) + inhibitor.
[11] abbreviates: from estimated Peff, DF 1.7, Rsi 2 cm.
Setting [12] is: healthy male subjects, oral suspension 40 mg [14C]istradefylline.
[13] abbreviates: human mass-balance study, 10 mg [14C]lemborexant.

For the molecule `CCn1c(=O)c2c(nc(/C=C/c3ccc(OC)c(OC)c3)n2C)n(CC)c1=O` [Istradefylline, istradefylline], the “theoretical IDR (Levich equation with CS as input)” value in data set [1] turned out to be 0.346 ± 0.005 µg/min/cm^2. Further, in data set [2], the recovery at 120 min, 10 µM is above 85%. Moreover, the Papp at 120 min, 10 µM in data set [2] (setting [7]) came out at 30.2 ± 1.2 ×10⁻⁶ cm/s; in data set [2] (setting [8]), 28.3 ± 16 ×10⁻⁶ cm/s; in the data set on P-gp (setting [9]), 31.2 ± 1.1 ×10⁻⁶ cm/s; in the data set on P-gp (setting [10]), 43.7 ± 18.5 ×10⁻⁶ cm/s. Further, the “SLAD (solubility-limited absorbable dose)” value in data set [3] amounted to 8.50 mg. In data set [4], the kdiss was found to be 4.55e-07 s⁻¹. The kperm in data set [4] (setting [11]) was 0.0238 min⁻¹. For the same molecule, in data set [5] (setting [12]), the “administered radioactivity recovered in feces” value is listed as 48.0 ± 13.4%. Besides, the “administered radioactivity recovered in urine” value in data set [5] (setting [12]) is on record as 38.9 ± 10.7%.
As for `Cc1ncc(OC[C@@]2(c3cccc(F)c3)C[C@H]2C(=O)Nc2ccc(F)cn2)c(C)n1` [Lemborexant, lemborexant], the “theoretical IDR (Levich equation with CS as input)” value in data set [1] was 2.24 ± 0.01 µg/min/cm^2. This molecule returned a recovery at 120 min, 10 µM in data set [2] above 74%. Moreover, the apparent permeability coefficient (Papp) at 120 min, 10 µM in data set [2] (setting [7]) amounted to 26.7 ± 1.2 ×10⁻⁶ cm/s; in data set [2] (setting [8]), 41.8 ± 1.2 ×10⁻⁶ cm/s; with P-gp (Caco-2, Papp(A⟹B) + inhibitor), 24.2 ± 0.7 ×10⁻⁶ cm/s; in the data set with P-gp (Caco-2, Papp(B⟹A) + inhibitor), 39 ± 0.4 ×10⁻⁶ cm/s. In addition, in the data set with Caco-2 cells (against antipyrine, propranolol and atenolol as comparators), the permeability assessment result is reported as “highly permeable”. For the same molecule, in data set [3], the “SLAD (solubility-limited absorbable dose)” value was 49.6 mg. The molecule also returned a kdiss in data set [4] of 3e-06 s⁻¹. For the same molecule, the kperm in data set [4] (setting [11]) was 0.0214 min⁻¹. The “Literature logP” value in data set [6] is 3.70 [33]. Also, the median tmax entry in data set [5] (healthy adults, single oral doses 1 to 10 mg) is listed as “approximately 1 h”. Besides, in data set [5] (setting [13]), the “dose recovered unchanged in feces” value is “about 13%”. Moreover, in data set [5] (setting [13]), the “fraction of oral dose absorbed (Fa)” value is 87%. Further, the exposure versus dose result in data set [5] (range 1 to 10 mg) is “increase in a dose-proportional manner”.
With `C[C@@H](c1ncncc1F)[C@](O)(Cn1cncn1)c1ccc(F)cc1F` [Voriconazole, voriconazole], the recovery at 120 min, 10 µM in data set [2] was above 87%. Moreover, the Papp at 120 min, 10 µM came out at 27.3 ± 1.7 ×10⁻⁶ cm/s in data set [2] (setting [7]), 43.5 ± 0.9 ×10⁻⁶ cm/s in data set [2] (setting [8]), 24 ± 1 ×10⁻⁶ cm/s in the data set with P-gp (setting [9]) and 40.4 ± 1.1 ×10⁻⁶ cm/s in the data set with P-gp (setting [10]). In the data set with Caco-2 cells (Caco-2), the permeability assessment result was “high permeability”. Moreover, in data set [3], the “SLAD (solubility-limited absorbable dose)” value came to 1810 mg. Also, in data set [4] (Excel template), the “kdiss for r = 100 µm” value came to 0.000126 s⁻¹. Besides, the figures for the kperm in data set [4] (Excel template) and in data set [4] (setting [11]) were 0.02193 min⁻¹ and 0.0219 min⁻¹, respectively. For the same molecule, the kdiss in data set [4] amounted to 0.000126 s⁻¹. In addition, the “Literature logP” value in data set [6] is 1.80 [32]. Moreover, the oral bioavailability in data set [5] (healthy volunteers, 200 mg or 400 mg oral) is at least 85%. In addition, the “exposure (AUC and Cmax) versus dose” value in data set [5] (high single oral doses of 800, 1200 and 1600 mg) was “increased proportionally with dose”.
